Series [1] concerns normal lymphocytes (T-cells) from a healthy volunteer. Description: Apoptosis of normal T-cell lymphocytes by Flow Cytometry. The series is classed as cell-based, human. An excerpt: Normal T-cell lymphocytes were obtained from a blood sample of a healthy volunteer. Blood samples were obtained with IRB approval and with the volunteer signing an Informed Consent Form. White blood cells were separated from red blood cells using a Ficoll gradient. Flow cytometry with antibodies against CD3 and CD4 was used to identify T-cell lymphocytes (Flow Cytometry Facility, University of Connecticut Health Center, Farmington, Conn.).
Blood was drawn from healthy volunteers and white blood cells (e.g., lymphocytes, neutrophils) were enriched using Ficoll-Plaque. Cells were incubated in Petri dishes containing MEM with 7% fetal calf serum in a CO2 (5%) incubator at 37° C.; Methyl sulfone was present at concentrations of 0, 3, 6, or 10%. After 20 hours, cells were incubated with antibodies specific to T-lymphocytes (CD3 and CD4 T-cells), B-lymphocytes (B-cells) and neutrophils, and the percent of apoptotic cells was determined by Flow Cytometry. This is a technique that identifies specific cell types (e.g., CD3 T-cells, CD4 T-cells, B-cells, neutrophils) within a mixed population of blood cells, and then determines whether the cells are alive or apoptotic.
After 20 hours, cells were incubated with fluorescent antibodies to identify T-cells, B-cells and neutrophils, and then processed by Flow Cytometry (FIG. 15).
In general terms: In flow cytometry, cells or beads pass a laser one at a time.

The subject of the next series is p27 in melanoma cells. Description: Immunofluorescence of p27. The series is classed as cell-based, mouse. As to conditions: cells treated with methyl sulfone. Here is the method: Cells were grown on 12 mm coverslips until 60 to 70% confluent. 2% methyl sulfone was added to half the coverslips and normal medium to other half. After 24, 48, and 96 hours, coverslips were placed in porcelain holders and incubated in 37° C. PBS for 30 seconds followed by incubation in 37° C. 4% paraformaldehyde for 10 minutes. Cells were washed in PBS for 5 minutes followed by incubation in 0.2% Triton X-100/PBS for 5 minutes at room temperature. Chicken serum ([…] in 1 ml PBS) was added to cells for 30 minutes. Cells were washed 3 times in 0.2% Triton X-100/PBS, 3 minutes each. Rabbit anti-p27 polyclonal antibody, (Santa Cruz Biotech, Calif.) was diluted 1/250 in 1% BSA/PBS and added to coverslips for 1.5 hours. Cells were washed 5 times in 0.2% Triton X-100/PBS, 3 minutes each. Secondary antibody, Alexa Fluor 488 chicken anti-rabbit antibody, was diluted 1/1000 in 1% BSA/PBS and added to coverslips for 30 minutes in the dark. Cells were washed five times in 0.2% Triton X-100/PBS, three minutes each. Cells were washed twice in PBS for two minutes each and placed in DAPI, diluted 1/1000 in PBS, for 5 minutes. Cells were washed in PBS for one minute. SlowFade was added to slides, coverslips were placed face down and sealed with nail polish. […]

Series [2] concerns CEM cells, leukemic T-cell lymphocytes. The series can be described thus: Apoptosis of leukemic lymphocytes, FITC-annexinV/propidium iodide microscopy. The series is classed as cell-based, human. Conditions: for apoptotic leukemic lymphocytes: 20 hours. The method, then:
Cloudman S-91 mouse melanoma cells (sub-clone M-3, CCL 53.1; American Type Culture Collection, Rockville, Md.) were grown in RMPI medium supplemented with 10% fetal bovine serum (Invitrogen, Inc) and 5% penicillin-streptomycin (Invitrogen, Inc). Mouse breast cancer cells (66Cl-1; American Type Culture Collection, Rockville, Md.) that are estrogen-receptor negative were grown in DMEM medium supplemented with 10% fetal bovine serum (Invitrogen, Inc) and 5% penicillin/streptomycin (Invitrogen, Inc). Human T-cell leukemic lymphocytes (CEM; American Type Culture Collection, Rockville, Md.) were grown in MEM medium supplemented with 7% fetal calf serum. Cultures were passaged twice a week.
CEM cells, leukemic T-cell lymphocytes obtained from a child with acute lymphocytic leukemia, were maintained in Petri dishes in MEM (minimal essential medium) with 7% fetal calf serum in a 5% CO2 incubator at 37° C. For experiments, methyl sulfone was added to the medium at concentrations from 0-6.0%. In control cells, no methyl sulfone was added. Cells (2×10^6 per ml) were incubated for 20 hrs in the presence or absence of methyl sulfone, and then assayed for apoptosis using FITC-annexinV/propidium iodide microscopy. Methyl sulfone was also compared to the anti-microtubule drug, vinblastine. Vinblastine (VNB) and its derivative, vincristine, are standard treatments for acute lymphocytic leukemia, as well as other cancers. We used the concentration of VNB that is found in the blood of subjects being treated with this drug (10^−7 M) (6,7).

The subject of the next series is melanoma cells. The series can be described thus: Senescence assay (β-galactosidase staining) and arborization. The series is classed as cell-based, mouse. The method, then:
Senescence was assessed with the Senescence Cells Histochemical Staining Kit (Sigma).
During the first 2-3 weeks of incubating melanoma cells in 2% methyl sulfone, replacement of the 2% methyl sulfone medium with medium without drug reversed the phenotypes described above. Re-adding 2% methyl sulfone to the cells re-induced the non-malignant phenotypes. This cycle of reversal occurred until the cells were incubated with 2% methyl sulfone for more than three weeks. […] As a further test, we detached senescent cells from the culture dish by trypsinization and replated the cells in medium without methyl sulfone.
Mature melanocytes assume a morphology that is similar to neuronal cells by having a small area of cytoplasm surrounding the nucleus and long extensions called arbors. The primary function of melanocytes is to produce melanin and package the melanin in vesicles called melanosomes. Melanosomes are then transported to the tips of melanocytes arbors. These tips are phagocytized by keratinocytes, cells that sit near the skin's surface, and the newly acquired melanosomes form an umbrella-like shield around the nuclei of keratinocytes to protect these cells' DNA from UV-inducing mutations.

The values that follow come from patent US10363229B2, “Methods and compositions for the treatment of cancer” (priority 2009, dated 2019).

For the substance methyl sulfone, the “viability of normal lymphocytes (T-cells)” value in series [1] (10% methyl sulfone, 20 hours) was “remained viable”. The “T-cells from the healthy volunteer induced into apoptosis” value in series [1] (summary in the description, concentration not given) was “less than 10%”. For the same substance, the “localization of p27” value in the series with p27 in melanoma cells is “localized in the nuclei”. Also, the apoptotic leukemic lymphocytes is listed as 74% in series [2] (4% methyl sulfone) and 88% in series [2] (6% methyl sulfone). The “effectiveness against leukemic lymphocytes compared with vinblastine” value in series [2] (comparison with 10^−7 M vinblastine) is “more effective than vinblastine”. Further, the “morphology of senescent melanoma cells (arborization)” value in the series with melanoma cells (2% methyl sulfone) was “took on the morphology of mature melanocytes”. Besides, the “survival of arborized cells in culture” value in the series with melanoma cells (2% methyl sulfone) is listed as “at least two months”. The “melanoma cells senescent (β-galactosidase activity)” value in the series with melanoma cells (2% methyl sulfone for more than three weeks) is “greater than 95%”. In the series with melanoma cells (senescent cells, 2% methyl sulfone removed), the “senescence after replacing drug medium with control medium” value was “remained senescent”.
